Reference: patent US20230127008A1, “STAT3-TARGETED BASE EDITOR THERAPEUTICS FOR THE TREATMENT OF MELANOMA AND OTHER CANCERS” (The Broad Institute, Inc., priority 2020, published 2023)

Columns and labels:
[1] = system: DNA; conditions: SpCas9 mutation relative to SEQ ID NO: 74; UniProtKB-Q99ZW2 entry; cited from earlier work
[2] = system: DNA; assay: A to G editing on DNA by ecTadA mutant-nCas9 constructs (mammalian construct); format: cell-based
[3] = system: STAT3; assay: STAT3 reporter signal after STAT3 inhibitor or base editor treatment (FIGS. 3, 4, 5); format: cell-based
[4] = system: STAT3; assay: STAT3 reporter system (STAT3 signal); format: cell-based
[5] = biological target: STAT3 SH2 domain (Homo sapiens, UniProt P40763); conditions: 37° C.; cited from earlier work
STAT3 SH2 domain, sequence (P40763 whole entry, the tested form may be a part): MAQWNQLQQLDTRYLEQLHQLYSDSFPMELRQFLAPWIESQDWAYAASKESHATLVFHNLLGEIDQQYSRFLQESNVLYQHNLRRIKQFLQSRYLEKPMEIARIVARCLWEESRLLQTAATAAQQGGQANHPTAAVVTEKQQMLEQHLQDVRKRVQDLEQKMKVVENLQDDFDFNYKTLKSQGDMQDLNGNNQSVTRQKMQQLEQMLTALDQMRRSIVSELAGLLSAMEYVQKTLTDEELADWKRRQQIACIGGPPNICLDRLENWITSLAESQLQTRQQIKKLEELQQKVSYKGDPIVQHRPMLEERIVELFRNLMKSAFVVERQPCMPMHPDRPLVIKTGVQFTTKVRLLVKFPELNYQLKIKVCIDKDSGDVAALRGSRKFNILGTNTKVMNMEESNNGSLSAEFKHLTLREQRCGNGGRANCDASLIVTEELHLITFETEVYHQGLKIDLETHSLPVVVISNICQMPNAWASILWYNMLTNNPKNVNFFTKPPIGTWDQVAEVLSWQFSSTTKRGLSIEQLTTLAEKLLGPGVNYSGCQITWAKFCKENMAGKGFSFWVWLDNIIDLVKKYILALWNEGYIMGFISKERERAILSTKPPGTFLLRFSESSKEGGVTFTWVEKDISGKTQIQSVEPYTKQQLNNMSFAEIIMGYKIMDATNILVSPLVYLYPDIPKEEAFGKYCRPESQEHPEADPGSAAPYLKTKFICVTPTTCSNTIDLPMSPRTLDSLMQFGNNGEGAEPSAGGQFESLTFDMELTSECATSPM

[6] = system: STAT3-dependent breast cancer cells; conditions: 10 μM; cited from earlier work

Compound: H840A: SpCas9 mutation relative to canonical SpCas9, SEQ ID NO: 74
- Function/Characteristic (as reported) [1]: Nickase mutant which cleaves the non-

Compound: ecTadA(D108N)-XTEN-nCas9-NLS: ABE fusion protein, SEQ ID NO: 154
- activity on DNA, A to G editing [2]: ecTadA(D108N)-XTEN-nCas9-NLS: (mammalian construct, active on DNA, A to G

Compound: O=[N+]([O-])c1ccc2c(c1)S(=O)(=O)C=C2 [Stattic, stattic]
- STAT3 signal over time [3]: produces an effect that does not last over time
- STAT3-driven signals ([3]; different concentrations): reduce STAT3-driven signals
- inhibition of STAT3 ([4]; STAT3 inhibitor at different concentrations, FIG. 3): inhibition of STAT3
- STAT3 signal over time ([4]; extension of the graph of FIG. 3, FIG. 5): does not lead to a durable effect
- IC50 [5]: 5.1 µM
- apoptosis [6]: induce apoptosis

Compound: ecTadA(D108V)-XTEN-nCas9-NLS: ABE fusion protein, SEQ ID NO: 156
- activity on DNA, A to G editing [2]: ecTadA(D108V)-XTEN-nCas9-NLS: (mammalian construct, active on DNA, A to G

Compound: ecTadA(D108G)-XTEN-nCas9-NLS: ABE fusion protein, SEQ ID NO: 155
- activity on DNA, A to G editing [2]: ecTadA(D108G)-XTEN-nCas9-NLS: (mammalian construct, active on DNA, A to G

Compound: 1099-1368 deletion: SpCas9 mutation relative to canonical SpCas9, SEQ ID NO: 74
- Function/Characteristic (as reported) [1]: No nuclease activity
